Assay results taken from patent US20220041588A1, “SUBSTITUTED IMIDAZO[1,2-A]PYRIDINE AND [1,2,4]TRIAZOLO[1,5-A]PYRIDINE COMPOUNDS AS RET KINASE INHIBITORS” (FOCHON PHARMACEUTICALS, LTD., priority 2018, published 2022).

Legend:
TT (RET C634W) cells = test: Cell proliferation assay (MTS), TT cells; format: cell-based; conditions: 72 h incubation, MTS readout
Procedure: (§1) MTS testing kit was purchased from Promega. The RPMI-1640, F12, F12K, Fetal bovine serum and Penicillin-Streptomycin were purchased from BI. Glutamine and Dimethyl sulfoxide (DMSO) were purchased from Sigma. TT cells were cultured in F12K supplemented with 10% FBS and LC-2/ad cells were cultured in HamF12: RPMI1640 (1:1) supplemented with 10% FBS and 2 mM Glutamine.
(§2) To investigate whether a compound is able to inhibit the activity of RET fusion and/or mutation in cells, a mechanism-based assay using TT (RET C634W) and LC-2/ad (CCDCl6-RET) cell lines was developed. In this assay, the inhibition of RET fusion and/or mutation was reflected by the inhibition of cell proliferation of TT and LC-2/ad cells. Cells were plated into 96-well plates at the optimized cell density (TT: 5000 cells/well; LC-2/ad: 5000 cells/well). Plates were incubated at 37° C., with 5% CO2 for 24 h. Compounds were serially diluted and added to the plates with the final concentrations as 10000, 3333.3, 1111.1, […], 123.5, 41.2, 13.7, 4.6 and 1.5 nM. Plates were incubated at 37° C., with 5% CO2 for 72 h. An aliquot of 20 μL MTS/100 μL medium mixture solution were added to each well and the plates were incubated for exactly 2 h. The reaction was stopped by adding 25 μL 10% SDS to each well. The absorbance was measured by a microplate reader at 490 nm and 650 nm (reference wavelength). IC50 was calculated using GraphPad Prism 5.0.

[1] = tested on: LC-2/ad (CCDCl6-RET) cells; test: Cell proliferation assay (MTS), LC-2/ad cells; format: cell-based; conditions: Homo sapiens, LC-2-ad, 72 h, LC-2/ad cells (CCDCl6-RET), 72 h incubation, MTS readout
Procedure: as §1, §2

Structure (SMILES)	IC50 (TT (RET C634W) cells; Homo sapiens, TT, 72 h)	IC50 [1]	IC50 (TT (RET C634W) cells)
COc1ccc(OC2CCN(c3ccc(-c4cc(OCC(C)(C)O)cc5ncc(C#N)n45)cn3)CC2)cn1 [Example 60, 7-(2-Hydroxy-2-methylpropoxy)-5-(6-(4-((6-methoxypyridin-3-yl)oxy)piperidin-1-yl)pyridin-3-yl)imidazo[1,2-a]pyridine-3-carbonitrile]	3 nM	9 nM	–
Cn1cc(-c2cc(-c3ccc(N4CCN(Cc5ccn(C)n5)CC4)nc3)n3c(C#N)cnc3c2)cn1 [Example 37, 5-(6-(4-((1-methyl-1H-pyrazol-3-yl)methyl)piperazin-1-yl)pyridin-3-yl)-7-(1-methyl-1H-pyrazol-4-yl)imidazo [1,2-a]pyridine-3-carbonitrile]	45 nM	41 nM	–
Cn1cc(-c2cc(-c3ccc(N4CCC(O)(Cc5ccccc5)CC4)nc3)n3c(C#N)cnc3c2)cn1 [Example 22, 5-(6-(4-benzyl-4-hydroxypiperidin-1-yl)pyridin-3-yl)-7-(1-methyl-1H-pyr-azol-4-yl)imidazo[1,2-a]pyridine-3-carbonitrile]	4 nM	1 nM	–
COc1ccc(CN2C3CC2CN(c2ccc(-c4cc(OCC5(O)CC5)cc5ncc(C#N)n45)cn2)C3)cn1 [Example 57A, 7-((1-Hydroxycyclopropyl)methoxy)-5-(6-(6-((6-methoxypyridin-3-yl)methyl)-3,6-diazabicyclo[3.1.1]heptan-3-yl)pyridin-3-yl)imidazo[1,2-a]pyridine-3-carbonitrile]	–	81 nM	33 nM
Cn1cc(-c2cc(-c3ccc(N4CCN(C(=O)Cc5ccccn5)CC4)nc3)n3c(C#N)cnc3c2)cn1 [Example 46, 7-(1-methyl-1H-pyrazol-4-yl)-5-(6-(4-(2-(pyridin-2-yl)acetyl)piperazin-1-yl)pyridin-3-yl)imidazo[1,2-a]pyri-dine-3-carbonitrile]	37 nM	36 nM	–
Cc1ccc(OC2CCN(c3ccc(-c4cc(-c5cnn(C)c5)cc5ncc(C#N)n45)cn3)CC2)nn1 [Example 20, 7-(1-methyl-1H-pyrazol-4-yl)-5-(6-(4-((6-methylpyridazin-3-yl)oxy)piper-idin-1-yl)pyridin-3-yl)imidazo[1,2-a]pyridine-3-carbonitrile]	6 nM	17 nM	–
COc1ccc(OC2CCN(c3ccc(-c4cc(OCC(C)(C)O)cc5ncc(C#N)n45)cn3)CC2)nn1 [Example 65, 7-(2-hydroxy-2-methylpropoxy)-5-(6-(4-((6-methoxypyridazin-3-yl)oxy)piperidin-1-yl)pyridin-3-yl)imidazo[1,2-a]pyridine-3-carbonitrile]	38 nM	34 nM	–
Cc1cccc(CN2CCN(c3ccc(-c4cc(-c5cnn(C)c5)cc5ncc(C#N)n45)cn3)CC2)n1 [Example 5, 7-(1-methyl-1H-pyrazol-4-yl)-5-(6-(4-((6-methylpyridin-2-yl)methyl)pi-perazin-1-yl)pyridin-3-yl)imidazo[1,2-a]pyridine-3-carbonitrile]	71 nM	80 nM	–
COc1ccc(CN2CCN(c3ccc(-c4cc(-c5cnn(CCN6CCOCC6)c5)cc5ncc(C#N)n45)cn3)CC2)cn1 [Example 26, 5-(6-(4-((6-methoxypyridin-3-yl)meth-yl)piperazin-1-yl)pyridin-3-yl)-7-(1-(2-morpholinoethyl)-1H-pyrazol-4-yl)imidazo[1,2-a]pyridine-3-carbonitrile]	74 nM	89 nM	–
COC(CNC(=O)N1CCN(c2ccc(-c3cc(-c4cnn(C)c4)cc4ncc(C#N)n34)cn2)CC1)C(C)C (stereo not shown) [Example 50, 4-(5-(3-cyano-7-(1-methyl-1H-pyrazol-4-yl)imidazo[1,2-a]pyridin-5-yl)pyridin-2-yl)-N-(2-methoxy-3-methyl-butyl)piperazine-1-carboxamide]	14 nM	30 nM	–
COc1ccc(CN2CCN(c3ccc(-c4cc(-c5cnn(C)c5)cc5ncc(C#N)n45)cn3)CC2)cn1 [Example 6, 5-(6-(4-((6-methoxypyridin-3-yl)meth-yl)piperazin-1-yl)pyridin-3-yl)-7-(1-methyl-1H-pyrazol-4-yl)imidazo[1,2-a]pyridine-3-carbonitrile]	42 nM	44 nM	–
CC(C)(O)COc1cc(-c2ccc(N3CCC(Oc4ccccn4)CC3)nc2)n2c(C#N)cnc2c1 [Example 64, 7-(2-hydroxy-2-methylpropoxy)-5-(6-(4-(pyridin-2-yloxy)piperidin-1-yl)pyridin-3-yl)imidazo[1,2-a]pyridine-3-carbonitrile]	87 nM	28 nM	–
Cn1cc(-c2cc3ncc(C#N)n3c(-c3ccc(N4CCN(Cc5ccccc5)CC4)nc3)n2)cn1 [Example 25, 5-(6-(4-benzylpiperazin-1-yl)pyridin-3-yl)-7-(1-methyl-1H-pyrazol-4-yl) imidazo[1,2-c]pyrimidine-3-carbonitrile]	79 nM	–	–
Cn1cc(-c2cc(-c3ccc(N4CCN(Cc5c(F)cccc5F)CC4)nc3)n3c(C#N)cnc3c2)cn1 [Example 35, 5-(6-(4-(2,6-difluorobenzyl)piperazin-1-yl)pyridin-3-yl)-7-(1-methyl-1H-pyrazol-4-yl)imidazo[1,2-a]pyridine-3-carbonitrile]	1 nM	–	–
CCOc1ccc(OC2CCN(c3ccc(-c4cc(OCC(C)(C)O)cc5ncc(C#N)n45)cn3)CC2)cn1 [Example 88, 5-(6-(4-((6-ethoxypyridin-3-yl)oxy)piperi-din-1-yl)pyridin-3-yl)-7-(2-hydroxy-2-meth-ylpropoxy)imidazo[1,2-a]pyridine-3-car-bonitrile]	2 nM	–	–
C#Cc1ccc(OC2CCN(c3ccc(-c4cc(OCC(C)(C)O)cc5ncc(C#N)n45)cn3)CC2)cn1 [Example 80, 5-(6-(4-((6-ethynylpyridin-3-yl)oxy)piper-idin-1-yl)pyridin-3-yl)-7-(2-hydroxy-2-methylpropoxy)imidazo[1,2-a]pyridine-3-carbonitrile]	7 nM	–	–
N#Cc1cnc2cc(OCC3(O)CC3)cc(-c3ccc(N4CCC(Oc5ccc(C(F)F)nc5)CC4)nc3)n12 [Example 78, 5-(6-(4-((6-(difluoromethyl)pyridin-3-yl)oxy)piperidin-1-yl)pyridin-3-yl)-7-((1-hy-droxycyclopropyl)methoxy)imidazo[1,2-a]pyridine-3-carbonitrile]	13 nM	–	–
CN(C)c1ccc(CN2CCN(c3ccc(-c4cc(-c5cnn(C)c5)cc5ncc(C#N)n45)cn3)CC2)cn1 [Example 28, 5-(6-(4-((6-(dimethylamino)pyridin-3-yl)methyl)piperazin-1-yl)pyridin-3-yl)-7-(1-methyl-1H-pyrazol-4-yl)im-idazo[1,2-a]pyridine-3-carbonitrile]	79 nM	–	–
N#Cc1cnc2cc(OCC3(O)CC3)cc(-c3ccc(N4CCC(Oc5ccc(OC6CC6)nc5)CC4)nc3)n12 [Example 85, 5-(6-(4-((6-cyclopropoxypyridin-3-yl)oxy)piperidin-1-yl)pyridin-3-yl)-7-((1-hy-droxycyclopropyl)methoxy)imidazo[1,2-a] pyridine-3-carbonitrile]	12 nM	–	–
Cc1ccc(OC2CCN(c3ccc(-c4cc(OCC5(O)CC5)cc5ncc(C#N)n45)cn3)CC2)cn1 [Example 74, 7-((1-hydroxycyclopropyl)methoxy)-5-(6-(4-((6-methylpyridin-3-yl)oxy)piperidin-1-yl)pyridin-3-yl)imidazo[1,2-a]pyridine-3-carbonitrile]	23 nM	–	–
COc1ccc(O[C@@H]2CCN(c3ccc(-c4cc(OCC(C)(C)O)cc5ncc(C#N)n45)cn3)C2)cn1 [Example 95, (R)-7-(2-hydroxy-2-methylpropoxy)-5-(6-(3-((6-methoxypyridin-3-yl)oxy)pyrrolidin-1-yl)pyridin-3-yl)imidazo[1,2-a]pyridine-3-carbonitrile]	7 nM	–	–
C#Cc1ccc(OC2CCN(c3ccc(-c4cc(OCC5(O)CC5)cc5ncc(C#N)n45)cn3)CC2)cn1 [Example 81, 5-(6-(4-((6-ethynylpyridin-3-yl)oxy)piper-idin-1-yl)pyridin-3-yl)-7-((1-hydroxycyclo-propyl)methoxy)imidazo-[1,2-a]pyridine-3-carbonitrile]	5 nM	–	–
COc1ccc(CN2CCN(c3ccc(-c4nc(-c5cnn(C)c5)cc5ncc(C#N)n45)cn3)CC2)nc1 [Example 24, 5-(6-(4-((5-methoxypyridin-2-yl)meth-yl)piperazin-1-yl)pyridin-3-yl)-7-(1-methyl-1H-pyrazol-4-yl)imidazo[1,2-c]pyrimidine-3-carbonitrile]	86 nM	–	–
COc1ccc(O[C@@H]2CCN(c3ccc(-c4cc(OCC5(O)CC5)cc5ncc(C#N)n45)cn3)C2)cn1 [Example 96, (R)-7-((1-hydroxycyclopropyl)methoxy)-5-(6-(3-((6-methoxypyridin-3-yl)oxy)pyr-rolidin-1-yl)pyridin-3-yl)imidazo[1,2-a] pyridine-3-carbonitrile]	9 nM	–	–
COc1ccccc1CN1CCN(c2ccc(-c3cc(-c4cnn(C)c4)cc4ncc(C#N)n34)cn2)CC1 [Example 29, 5-(6-(4-(2-methoxybenzyl)piperazin-1-yl)pyridin-3-yl)-7-(1-methyl-1H-pyrazol-4-yl)imidazo[1,2-a]pyridine-3-carbonitrile]	84 nM	–	–
